What was measured:
[1] = target: T1, Kv12.1 (Elk1) (Homo sapiens, UniProt Q96L42); assay: whole-cell patch clamp, steady-state outward current at […] mV; type: cell-based; conditions: activator, pH 7.4, CHO cells, room temperature
T1 construct: gene KCNH8; full-length channel from pcDNA3.1-IRES-eGFP, transient expression in CHO dhFR- cells
T1 sequence (Q96L42 1-1107): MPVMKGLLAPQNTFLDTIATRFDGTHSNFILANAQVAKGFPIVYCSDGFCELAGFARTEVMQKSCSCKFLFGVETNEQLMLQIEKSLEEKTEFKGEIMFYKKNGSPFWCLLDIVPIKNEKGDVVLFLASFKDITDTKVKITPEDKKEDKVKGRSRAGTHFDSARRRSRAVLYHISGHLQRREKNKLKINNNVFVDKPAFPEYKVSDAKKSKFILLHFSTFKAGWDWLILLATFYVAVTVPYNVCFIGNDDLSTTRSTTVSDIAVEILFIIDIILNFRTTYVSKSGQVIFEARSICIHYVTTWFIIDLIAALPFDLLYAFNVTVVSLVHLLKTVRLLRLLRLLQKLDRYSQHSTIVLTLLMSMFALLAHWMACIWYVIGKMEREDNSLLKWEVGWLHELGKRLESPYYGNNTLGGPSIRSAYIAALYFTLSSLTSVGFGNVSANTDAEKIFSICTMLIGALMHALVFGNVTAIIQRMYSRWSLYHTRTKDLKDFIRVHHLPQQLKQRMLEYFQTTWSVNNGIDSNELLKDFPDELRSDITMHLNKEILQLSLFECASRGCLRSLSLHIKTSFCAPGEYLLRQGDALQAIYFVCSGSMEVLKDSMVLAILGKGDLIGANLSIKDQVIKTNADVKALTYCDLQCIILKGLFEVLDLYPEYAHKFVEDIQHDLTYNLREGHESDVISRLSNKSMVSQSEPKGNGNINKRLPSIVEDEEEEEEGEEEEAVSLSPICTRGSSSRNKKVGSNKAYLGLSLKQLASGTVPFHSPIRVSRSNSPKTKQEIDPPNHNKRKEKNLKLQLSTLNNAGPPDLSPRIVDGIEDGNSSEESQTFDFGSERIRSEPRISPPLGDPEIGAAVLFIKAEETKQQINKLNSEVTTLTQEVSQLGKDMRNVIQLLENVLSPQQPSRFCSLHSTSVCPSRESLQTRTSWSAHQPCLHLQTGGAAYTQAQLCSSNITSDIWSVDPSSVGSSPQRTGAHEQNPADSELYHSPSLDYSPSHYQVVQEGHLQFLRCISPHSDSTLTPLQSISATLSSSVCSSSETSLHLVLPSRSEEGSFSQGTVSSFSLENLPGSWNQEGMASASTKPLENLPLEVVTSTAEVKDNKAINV

[2] = target: T1, Kv12.1 (Elk1); assay: whole-cell patch clamp; type: cell-based; conditions: weak inhibitor; 100 mM; n = 9; CHO cells, room temperature

With `Nc1cccnc1` [3-AP, 3-aminopyridine] the “% potentiation at 3 mM” value [1] was ~ 7%.

With `CC[N+](CC)(CC)CC` [TEA, tetraethylammonium] the “I100mM TEA/IStart” value [2] was 0.83 ± 0.01.
